Measurements from patent publication US20050197338A1, “Substituted pyrazole urea compounds for the treatment of inflammation” (priority 2003, published 2005).

These compounds were tested against T1, Rat IKK-2 (Rattus norvegicus, UniProt Q9QY78) (assay: Rat IKK-2 enzyme assay). Details: read-out: IC50 (μM) rIKK-2.
T1 sequence (Q9QY78 1-757): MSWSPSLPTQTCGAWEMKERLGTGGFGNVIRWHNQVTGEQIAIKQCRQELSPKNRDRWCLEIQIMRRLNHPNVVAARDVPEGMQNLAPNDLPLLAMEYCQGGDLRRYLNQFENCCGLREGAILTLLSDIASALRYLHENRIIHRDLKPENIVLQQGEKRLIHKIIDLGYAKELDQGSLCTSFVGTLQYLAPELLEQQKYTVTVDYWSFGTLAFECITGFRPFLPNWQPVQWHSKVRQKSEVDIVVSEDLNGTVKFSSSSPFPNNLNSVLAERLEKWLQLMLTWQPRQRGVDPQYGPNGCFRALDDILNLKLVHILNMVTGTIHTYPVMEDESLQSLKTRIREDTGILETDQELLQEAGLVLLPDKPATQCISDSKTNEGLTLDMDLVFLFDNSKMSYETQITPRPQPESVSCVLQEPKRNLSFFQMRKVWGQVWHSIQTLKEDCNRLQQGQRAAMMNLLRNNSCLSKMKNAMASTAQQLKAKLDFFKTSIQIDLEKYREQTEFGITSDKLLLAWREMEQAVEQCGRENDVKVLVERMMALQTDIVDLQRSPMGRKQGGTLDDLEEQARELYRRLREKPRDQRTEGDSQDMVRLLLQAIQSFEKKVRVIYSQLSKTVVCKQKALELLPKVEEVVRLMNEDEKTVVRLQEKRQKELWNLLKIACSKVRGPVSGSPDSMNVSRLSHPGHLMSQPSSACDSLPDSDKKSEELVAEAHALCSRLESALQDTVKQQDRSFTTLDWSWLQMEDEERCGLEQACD
Type: biochemical

Row | IC50 [µM] | SMILES
1 | 1.08 | COc1ccc(-n2cc(NC(N)=O)c(C(N)=O)n2)cc1Cl [Example 209, 4-[(Aminocarbonyl)amino]-1-(3-chloro-4-methoxyphenyl)-1H-pyrazole-3-carboxamide]
2 | 0.091 | NC(=O)Nc1cn(-c2ccc(I)cc2)nc1C(N)=O [Example 215, 4-[(aminocarbonyl)amino]-1-(4-iodophenyl)-1H-pyrazole-3-carboxamide]
3 | 0.292 | NC(=O)Nc1cn(-c2ccc(Br)c(F)c2)nc1C(N)=O [Example 225, 4-[(aminocarbonyl)amino]-1-(4-bromo-3-fluorophenyl)-1H-pyrazole-3-carboxamide]
4 | 0.249 | NC(=O)Nc1cn(-c2ccc(-c3cccc(O)c3)cc2F)nc1C(N)=O [Example 247, 4-[(aminocarbonyl)amino]-1-(3-fluoro-3′-hydroxy-1,1′-biphenyl-4-yl)-1H-pyrazole-3-carboxamide]
